Data on seven molecules can be found in ChEMBL document CHEMBL2073854, “Localization and function of the organic anion-transporting polypeptide Oatp2 in rat liver” (Gastroenterology, 1999).

In data set [1] the target is T1, Solute carrier organic anion transporter family member 1A4 (Rattus norvegicus, UniProt O35913).
T1 sequence (O35913 whole entry): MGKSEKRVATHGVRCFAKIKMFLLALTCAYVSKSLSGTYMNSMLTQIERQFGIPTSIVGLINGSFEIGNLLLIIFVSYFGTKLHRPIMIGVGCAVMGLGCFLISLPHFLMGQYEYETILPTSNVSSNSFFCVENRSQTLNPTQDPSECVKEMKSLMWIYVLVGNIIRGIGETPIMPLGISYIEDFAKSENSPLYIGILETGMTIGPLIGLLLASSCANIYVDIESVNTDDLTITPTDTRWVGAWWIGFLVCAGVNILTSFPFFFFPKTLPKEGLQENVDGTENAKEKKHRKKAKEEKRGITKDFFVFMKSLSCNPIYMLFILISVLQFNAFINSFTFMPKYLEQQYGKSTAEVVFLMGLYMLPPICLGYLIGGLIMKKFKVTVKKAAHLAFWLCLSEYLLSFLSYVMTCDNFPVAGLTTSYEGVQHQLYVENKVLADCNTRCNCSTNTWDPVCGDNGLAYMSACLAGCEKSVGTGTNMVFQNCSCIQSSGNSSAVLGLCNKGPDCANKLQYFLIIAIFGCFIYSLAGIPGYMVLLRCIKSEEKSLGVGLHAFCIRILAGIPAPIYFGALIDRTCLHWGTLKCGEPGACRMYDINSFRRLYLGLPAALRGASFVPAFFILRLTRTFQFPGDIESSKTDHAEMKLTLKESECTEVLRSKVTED
Briefly: (§1) TP_TRANSPORTER: uptake in Xenopus laevis oocytes. It counts as functional, cell-based. The conditions noted are these: oocyte.

For data set [2], the target named is T2, Solute carrier organic anion transporter family member 1A1 (Rattus norvegicus, UniProt P46720).
T2 sequence (P46720 whole entry): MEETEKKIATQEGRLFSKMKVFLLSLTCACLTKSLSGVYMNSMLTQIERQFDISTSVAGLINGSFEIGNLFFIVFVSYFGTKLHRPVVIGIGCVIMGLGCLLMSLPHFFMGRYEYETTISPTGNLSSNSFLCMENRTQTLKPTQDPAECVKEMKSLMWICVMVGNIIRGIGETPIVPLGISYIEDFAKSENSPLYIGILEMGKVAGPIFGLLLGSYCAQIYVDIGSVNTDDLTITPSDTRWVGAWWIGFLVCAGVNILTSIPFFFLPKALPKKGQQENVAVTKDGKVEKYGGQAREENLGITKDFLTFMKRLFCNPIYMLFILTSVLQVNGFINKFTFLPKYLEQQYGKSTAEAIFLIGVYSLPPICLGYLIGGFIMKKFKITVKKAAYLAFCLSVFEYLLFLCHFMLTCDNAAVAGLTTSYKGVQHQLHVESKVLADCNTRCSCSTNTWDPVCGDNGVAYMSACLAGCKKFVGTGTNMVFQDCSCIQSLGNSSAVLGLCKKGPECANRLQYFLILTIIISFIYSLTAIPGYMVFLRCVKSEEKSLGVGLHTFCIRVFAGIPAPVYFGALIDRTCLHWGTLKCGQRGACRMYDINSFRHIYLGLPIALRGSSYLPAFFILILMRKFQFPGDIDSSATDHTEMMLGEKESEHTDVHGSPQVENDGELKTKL
The data set is described as §1. Type of data set: functional, cell-based. To be noted: oocyte.

Substrate in data set [3]: [H][C@]12CC[C@]3([H])[C@]([H])(CC[C@]4(C)C([C@H](C)CCC(=O)NCCS(=O)(=O)O)CC[C@@]34[H])[C@@]1(C)CC[C@@H](OS(=O)(=O)O)C2
The data set is described as §1. Type of data set: functional, cell-based, Oocyte.

Substrate in data set [4]: CC(C)C[C@@H]1NC(=O)[C@@H](C(C)C)NC(=O)[C@@H]2CCCN2C(=O)[C@@H](CC(=O)O)NC(=O)[C@@H](Cc2c[nH]c3ccccc23)NC1=O
Described as §1. It counts as functional, cell-based, Oocyte.

Substrate in data set [5]: C[C@H](CCC(=O)NCCS(=O)(=O)O)[C@H]1CC[C@H]2[C@@H]3[C@H](O)C[C@@H]4C[C@H](O)CC[C@]4(C)[C@H]3CC[C@]12C
Described as §1. It counts as functional, cell-based, Oocyte.

Substrate in data set [6]: [H][C@@]12CC=C3C[C@@H](OS(=O)(=O)O)CC[C@]3(C)[C@@]1([H])CC[C@]1(C)C(=O)CC[C@@]21[H]
The description is as §1. It counts as functional, cell-based, Oocyte.

Substrate in data set [7]: C[C@H](CCC(=O)NCCS(=O)(=O)O)[C@H]1CC[C@H]2[C@@H]3[C@@H](O)C[C@@H]4C[C@H](O)CC[C@]4(C)[C@H]3CC[C@]12C
Described as §1. It counts as functional, cell-based, Oocyte.

`C=CC1=C(C)/C(=C/c2[nH]c(Cc3[nH]c(/C=C4\NC(=O)C(C)=C4C=C)c(C)c3CCC(=O)O[C@@H]3OC(C(=O)O)[C@@H](O)C(O)C3O)c(CCC(=O)O)c2C)NC1=O` (some centres not stated) [BILIRUBIN MONOGLUCURONIDE]: the Activity entry is “is not a substrate [-]” in data set [1] and “substrate [+]” in data set [2].

`C[C@H](CCC(=O)NCCS(=O)(=O)O)C1CC[C@H]2[C@@H]3CC[C@@H]4C[C@H](OS(=O)(=O)O)CC[C@]4(C)[C@H]3CC[C@]12C` (some centres not stated): the Activity result in data set [1] is “is not a substrate [-]”.

Regarding GADOXETATE, in data set [1], the Activity result was “is not a substrate [-]”.

Consider `O=C1OC(c2ccc(O)c(S(=O)(=O)[O-])c2)(c2ccc(O)c(S(=O)(=O)[O-])c2)c2c(Br)c(Br)c(Br)c(Br)c21.[Na+].[Na+]` [SULFOBROMOPHTHALEIN SODIUM], for which the Activity result in data set [1] is “is not a substrate [-]”.

As for `CCCCC/C=C\C\C=C/C=C/C=C/[C@@H](SC[C@@H](NC(=O)CC[C@H](N)C(=O)O)C(=O)NCC(=O)O)[C@@H](O)CCCC(=O)O` [LEUKOTRIEN C4], the Activity result in data set [1] is “is not a substrate [-]”.

B1: Solute carrier organic anion transporter family member 1A1 (Rattus norvegicus) (protein)
chain: MEETEKKIATQEGRLFSKMKVFLLSLTCACLTKSLSGVYMNSMLTQIERQFDISTSVAGLINGSFEIGNLFFIVFVSYFGTKLHRPVVIGIGCVIMGLGCLLMSLPHFFMGRYEYETTISPTGNLSSNSFLCMENRTQTLKPTQDPAECVKEMKSLMWICVMVGNIIRGIGETPIVPLGISYIEDFAKSENSPLYIGILEMGKVAGPIFGLLLGSYCAQIYVDIGSVNTDDLTITPSDTRWVGAWWIGFLVCAGVNILTSIPFFFLPKALPKKGQQENVAVTKDGKVEKYGGQAREENLGITKDFLTFMKRLFCNPIYMLFILTSVLQVNGFINKFTFLPKYLEQQYGKSTAEAIFLIGVYSLPPICLGYLIGGFIMKKFKITVKKAAYLAFCLSVFEYLLFLCHFMLTCDNAAVAGLTTSYKGVQHQLHVESKVLADCNTRCSCSTNTWDPVCGDNGVAYMSACLAGCKKFVGTGTNMVFQDCSCIQSLGNSSAVLGLCKKGPECANRLQYFLILTIIISFIYSLTAIPGYMVFLRCVKSEEKSLGVGLHTFCIRVFAGIPAPVYFGALIDRTCLHWGTLKCGQRGACRMYDINSFRHIYLGLPIALRGSSYLPAFFILILMRKFQFPGDIDSSATDHTEMMLGEKESEHTDVHGSPQVENDGELKTKL
Consider B1, for which the Km in data set [3] was determined as 6 µM; in data set [4], 600 µM.

B2: Solute carrier organic anion transporter family member 1A4 (Rattus norvegicus) (protein)
chain: MGKSEKRVATHGVRCFAKIKMFLLALTCAYVSKSLSGTYMNSMLTQIERQFGIPTSIVGLINGSFEIGNLLLIIFVSYFGTKLHRPIMIGVGCAVMGLGCFLISLPHFLMGQYEYETILPTSNVSSNSFFCVENRSQTLNPTQDPSECVKEMKSLMWIYVLVGNIIRGIGETPIMPLGISYIEDFAKSENSPLYIGILETGMTIGPLIGLLLASSCANIYVDIESVNTDDLTITPTDTRWVGAWWIGFLVCAGVNILTSFPFFFFPKTLPKEGLQENVDGTENAKEKKHRKKAKEEKRGITKDFFVFMKSLSCNPIYMLFILISVLQFNAFINSFTFMPKYLEQQYGKSTAEVVFLMGLYMLPPICLGYLIGGLIMKKFKVTVKKAAHLAFWLCLSEYLLSFLSYVMTCDNFPVAGLTTSYEGVQHQLYVENKVLADCNTRCNCSTNTWDPVCGDNGLAYMSACLAGCEKSVGTGTNMVFQNCSCIQSSGNSSAVLGLCNKGPDCANKLQYFLIIAIFGCFIYSLAGIPGYMVLLRCIKSEEKSLGVGLHAFCIRILAGIPAPIYFGALIDRTCLHWGTLKCGEPGACRMYDINSFRRLYLGLPAALRGASFVPAFFILRLTRTFQFPGDIESSKTDHAEMKLTLKESECTEVLRSKVTED
Consider B2, for which the Km in data set [5] is 12 µM; in data set [4] it was 30 µM; in data set [6], 17 µM; in data set [7], 17 µM.
